Source: ChEMBL document CHEMBL5537151, “Design, synthesis and bioactivity evaluation of novel fusion peptides and their CPT conjugates inducing effective anti-tumor responses on HER2 positive tumors” (Eur J Med Chem, 2024)
The source made the active and inactive calls. The calls are words filed in the database; no cut-off is given here. Peptide text beside a SMILES is read from it. * marks the point of attachment. X1 = CCC1(C(=O)OCCS*)C(=O)OCc2c1cc1n(c2=O)Cc2cc3ccccc3nc2-1

How the values were obtained:
[1] = system: SK-BR-3; assay: Induction of apoptosis in human SK-BR-3 cells assessed as downregulation of XIAP protein expression at 2.5 uM by Western blot analysis; format: functional, cell-based; details: time 24-48 hrs, TDE = time-dependent effect
[2] = molecular target: T1, DNA topoisomerase 1 (Homo sapiens) (UniProt P11387); assay: Inhibition of topoisomerase 1 (unknown origin) assessed as reduction in DNA relaxation by measuring increase in supercoiled DNA level pretreated for 20 mins in water bath followed by pBR322 DNA addition and measured after 30 mins by agarose gel electrophoresis; details: dose 1-100 µM, time 50.0 min
T1 sequence (whole entry): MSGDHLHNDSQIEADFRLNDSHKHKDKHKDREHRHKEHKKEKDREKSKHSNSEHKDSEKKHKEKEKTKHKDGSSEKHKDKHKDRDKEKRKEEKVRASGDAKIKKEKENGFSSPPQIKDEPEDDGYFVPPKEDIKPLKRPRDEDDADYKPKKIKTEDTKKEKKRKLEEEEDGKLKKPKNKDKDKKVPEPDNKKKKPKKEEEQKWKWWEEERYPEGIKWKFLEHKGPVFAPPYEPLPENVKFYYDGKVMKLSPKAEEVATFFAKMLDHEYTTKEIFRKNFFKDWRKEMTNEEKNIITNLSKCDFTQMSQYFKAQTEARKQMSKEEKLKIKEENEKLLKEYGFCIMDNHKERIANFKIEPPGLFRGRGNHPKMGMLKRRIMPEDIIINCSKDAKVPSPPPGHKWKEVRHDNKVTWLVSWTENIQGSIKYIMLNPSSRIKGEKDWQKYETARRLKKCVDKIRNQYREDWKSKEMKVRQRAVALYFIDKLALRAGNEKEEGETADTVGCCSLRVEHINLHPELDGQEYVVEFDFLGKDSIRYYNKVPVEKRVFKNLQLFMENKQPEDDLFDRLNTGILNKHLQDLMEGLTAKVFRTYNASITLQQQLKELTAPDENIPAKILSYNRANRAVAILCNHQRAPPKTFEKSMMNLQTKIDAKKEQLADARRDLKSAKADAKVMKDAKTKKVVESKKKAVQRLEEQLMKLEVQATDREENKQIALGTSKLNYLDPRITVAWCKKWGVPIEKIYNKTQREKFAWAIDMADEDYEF

[3] = system: SK-BR-3; assay: Induction of apoptosis in human SK-BR-3 cells assessed as caspase-3 activation by measuring increase in green fluorescence incubated for 24 hrs by GreenNuc substrate/Hoechst 33342 staining based fluorescence microscopic analysis; format: functional, cell-based
[4] = system: SK-BR-3; assay: Induction of apoptosis in human SK-BR-3 cells assessed as downregulation of cIAP1 protein expression at 2.5 to 5 uM incubated for 24 hrs by Western blot analysis; format: functional, cell-based; details: dose 2.5-5 µM
[5] = system: SK-BR-3; assay: cells; details: Homo sapiens, SK-BR-3, 48 h
Description: Cytotoxicity against HER-positive human SK-BR-3 cells incubated for 48 hrs by CCK-8 assay

[6] = system: SK-BR-3; assay: Induction of apoptosis in human SK-BR-3 cells assessed as increase in ROS level by flow cytometry analysis; format: functional, cell-based
[7] = Toxicity in nude mouse xenografted with human SK-BR-3 cells assessed as change in creatinine level at 8 umol/kg, iv administered every 3 days for 14 days; format: organism-based; details: in vivo, 336 h, dose 8 µmol/kg, time 14 day
[8] = Cytotoxicity against HER-negative human MCF-10A cells incubated for 48 hrs by CCK-8 assay; format: toxicity, cell-based
[9] = Toxicity in nude mouse xenografted with human SK-BR-3 cells assessed as inflammatory cell infiltration in kidney at 8 umol/kg, iv administered every 3 days for 14 days by H and E staining based analysis; format: organism-based; details: in vivo, 336 h, dose 8 µmol/kg, time 14 day
[10] = Drug release in human SK-BR-3 cells assessed as cathepsin-mediated SMAC polypeptide release at 10 uM incubated for 6 hrs by FITC/Lysotracker red dye based laser confocal microscopic analysis; format: ADME, cell-based; details: sk-br-3, 6 h
[11] = Toxicity in nude mouse xenografted with human SK-BR-3 cells assessed as change in total protein level at 8 umol/kg, iv administered every 3 days for 14 days; format: organism-based; details: in vivo, 336 h, dose 8 µmol/kg, time 14 day
[12] = Toxicity in nude mouse xenografted with human SK-BR-3 cells assessed as cell necrosis in liver at 8 umol/kg, iv administered every 3 days for 14 days by H and E staining based analysis; format: organism-based; details: in vivo, 336 h, dose 8 µmol/kg, time 14 day
[13] = system: MDA-MB-231; assay: cells; details: Homo sapiens, MDA-MB-231, 48 h
Description: Cytotoxicity against HER-negative human MDA-MB-231 cells incubated for 48 hrs by CCK-8 assay

[14] = Drug localization in lysosome of human SK-BR-3 cells assessed as increase in green fluorescence of FITC at 10 uM incubated for 6 hrs by FITC/Lysotracker red dye based laser confocal microscopic analysis; format: ADME, subcellular; details: sk-br-3, 6 h
[15] = Toxicity in nude mouse xenografted with human SK-BR-3 cells assessed as change in globulin level at 8 umol/kg, iv administered every 3 days for 14 days; format: organism-based; details: in vivo, 336 h, dose 8 µmol/kg, time 14 day
[16] = Toxicity in nude mouse xenografted with human SK-BR-3 cells assessed as increase in ALT level at 8 umol/kg, iv administered every 3 days for 14 days; format: organism-based; details: in vivo, 336 h, dose 8 µmol/kg, time 14 day
[17] = Toxicity in nude mouse xenografted with human SK-BR-3 cells assessed as cell necrosis in lung at 8 umol/kg, iv administered every 3 days for 14 days by H and E staining based analysis; format: organism-based; details: in vivo, 336 h, dose 8 µmol/kg, time 14 day
[18] = Drug release in human SK-BR-3 cells assessed as cathepsin-mediated camptothecin release by measuring increase in blue fluorescence at 10 uM incubated for 6 hrs by FITC/Lysotracker red dye based laser confocal microscopic analysis; format: ADME, cell-based; details: sk-br-3, 6 h
[19] = Toxicity in nude mouse xenografted with human SK-BR-3 cells assessed as increase in AST level at 8 umol/kg, iv administered every 3 days for 14 days; format: organism-based; details: in vivo, 336 h, dose 8 µmol/kg, time 14 day
[20] = system: SK-BR-3; assay: Antitumor activity against human SK-BR-3 cells xenografted in nude mouse assessed as inhibition of tumor growth at 8 umol/kg, iv administered every 3 days for 14 days and measured every 2 days by vernier caliper analysis; format: functional, organism-based; details: dose 8.0 µmol/kg, time 14.0 day
[21] = Toxicity in nude mouse xenografted with human SK-BR-3 cells assessed as cell necrosis in spleen at 8 umol/kg, iv administered every 3 days for 14 days by H and E staining based analysis; format: organism-based; details: in vivo, 336 h, dose 8 µmol/kg, time 14 day
[22] = Toxicity in nude mouse xenografted with human SK-BR-3 cells assessed as inflammatory cell infiltration in liver at 8 umol/kg, iv administered every 3 days for 14 days by H and E staining based analysis; format: organism-based; details: in vivo, 336 h, dose 8 µmol/kg, time 14 day
[23] = system: SK-BR-3; assay: Induction of apoptosis in human SK-BR-3 cells assessed as late apoptotic cells at 1 uM incubated for 24 hrs by Annexin V-FITC/PI staining based flow cytometry analysis (reference value: 1.11%); format: functional
[24] = system: SK-BR-3; assay: Induction of apoptosis in human SK-BR-3 cells assessed as downregulation of cIAP1 protein expression at 2.5 uM by Western blot analysis; format: functional, cell-based; details: time 24-48 hrs, TDE = time-dependent effect
[25] = system: SK-BR-3; assay: Induction of apoptosis in human SK-BR-3 cells assessed as early apoptotic cells at 1 uM incubated for 24 hrs by Annexin V-FITC/PI staining based flow cytometry analysis (reference value: 2.80%); format: functional
[26] = Toxicity in nude mouse xenografted with human SK-BR-3 cells assessed as inflammatory cell infiltration in heart at 8 umol/kg, iv administered every 3 days for 14 days by H and E staining based analysis; format: organism-based; details: in vivo, 336 h, dose 8 µmol/kg, time 14 day
[27] = Drug localization in lysosome of human SK-BR-3 cells assessed as increase in red fluorescence of lysosomal dye at 10 uM incubated for 6 hrs by FITC/Lysotracker red dye based laser confocal microscopic analysis; format: ADME, subcellular; details: sk-br-3, 6 h

- inhibition [2]: Dose-Dependent Effect
- IC50 [5]: 0.53 µM
- Drug metabolism [10]: Metabolite_Detected
- IC50 [13]: 18.4 µM
- Drug uptake [14]: Active
- Drug metabolism [18]: Metabolite_Detected
- Drug uptake [27]: Active
Compound: CC[C@H](C)[C@H](NC(=O)[C@@H]1CCCN1C(=O)[C@@H](NC(=O)[C@H](C)N)C(C)C)C(=O)N[C@@H](C)C(=O)N[C@@H](CCC(N)=O)C(=O)N[C@@H](CCCCN)C(=O)N[C@@H](CSSCCOC(=O)C1(CC)C(=O)OCc2c1cc1n(c2=O)Cc2cc3ccccc3nc2-1)C(=O)NCC(=O)N[C@@H](Cc1ccccc1)C(=O)N[C@@H](CC(C)C)C(=O)NCC(=O)N[C@@H](CC(N)=O)C(=O)N1CCC[C@H]1C(=O)N[C@@H](CC(N)=O)C(=O)N[C@@H](Cc1c[nH]c2ccccc12)C(=O)NCC(=O)N[C@@H](CCCNC(=N)N)C(=O)N[C@@H](CO)C(=O)N[C@@H](Cc1c[nH]c2ccccc12)C(=O)N[C@@H](Cc1ccc(O)cc1)C(=O)N[C@@H](CC(N)=O)C(=O)N[C@@H](CCC(N)=O)C(=O)N[C@@H](CCCNC(=N)N)C(=O)N[C@@H](Cc1ccccc1)C(=O)N[C@@H](CCCCN)C(N)=O (some centres not stated) (H-AVPIAQKC(X1)GFLGNPNWGRSWYNQRFK-NH2)
- Activity [1]: Tde
- Activity [3]: Active
- Activity [4]: Active
- Activity [6]: Active
- Activity [7]: Non-Toxic
- IC50 at 48 h [8]: 17.8 µM
- Activity [9]: Non-Toxic
- Activity [11]: Non-Toxic
- Activity [12]: Non-Toxic
- Activity [15]: Non-Toxic
- Activity [16]: Toxic
- Activity [17]: Non-Toxic
- Activity [19]: Toxic
- Activity [20]: Active
- Activity [21]: Non-Toxic
- Activity [22]: Non-Toxic
- Activity [23]: 9.46%
- Activity [24]: Tde
- Activity [25]: 26%
- Activity [26]: Non-Toxic
